Test results published in US10894772B2, “Flavor modulator having pyridine derivative or salt thereof as active ingredient” (T. HASEGAWA CO., LTD., priority 2015, dated 2021).

Key:
Type in all cases: in vivo
[1] = system: panelists; assay: Confirmation of umami imparting and saltiness enhancing effect in 0.3 mass % sodium chloride (evaluation in words)
Description: An aqueous 0.3 mass % sodium chloride solution (control), and solutions of 2-(3-benzyloxypropyl)pyridine dissolved in a 0.3 mass % sodium chloride solution to have the concentration shown in Table 17 were prepared. As comparative products, an aqueous 0.3 mass % sodium chloride solution (control), and a solution of a comparative product, 2-(2-benzyloxyethyl)pyridine dissolved in a 0.3 mass % sodium chloride solution to have the same concentration were prepared. Well-trained 5 panelists tasted the solutions for organoleptic evaluation of umami impartment and saltiness enhancement.
An aqueous 0.3 mass % sodium chloride solution (control), and solutions of the invention product 201 or the reference product 202 dissolved in a 0.3 mass % sodium chloride solution to have the concentration as 2-(3-benzyloxypropyl)pyridine therein shown in the following Table 23 were prepared. Well-trained 5 panelists tasted the solutions for organoleptic evaluation of umami impartment and saltiness enhancement.

[2] = system: panelists; assay: Addition to soup broth for udon noodle; conditions: 0.05 ppm added to commercial soup broth for udon noodle; 100 ml diluted with 200 ml hot water; 5 panelists
Description: (§1) 0.05 ppm of any of the invention products 1 to 6 was added to commercially-available soup broth for udon noodle (tripe strength). 200 ml of hot water was added to 100 ml of each of the added soup broth and the non-added soup broth, and well-trained 5 panelists tasted them for organoleptic evaluation in point of umami.
as §1, with “2-(3-benzyloxypropyl)pyridine (invention product 101)” for “any of the invention products 1 to 6”
as §1, with “as 2-(3-benzyloxypropyl)pyridine therein” for “of any”, “product 201” for “products 1 to 6”

[3] = system: panelists; assay: Flavor evaluation of ethanol solution (bottle mouth and flavor paper); conditions: 0.1% ethanol solution, average evaluation of 5 panelists
Description: (§2) A 1% ethanol solution of the invention products 1 to 6 prepared in Examples 1 to 6 was prepared as an evaluation solution. The evaluation solution was prepared in a sample bottle. Regarding the flavor of the sample smelling from the bottle mouth and the flavor of a flavor paper prepared by infiltrating the evaluation solution into a paper, well-trained 5 panelists tested the solution for flavor evaluation.
as §2, with “0.1%” for “1%”, “product 101 (2-(3-benzyloxypropyl)pyridine)” for “products 1 to 6”, “Example 101” for “Examples 1 to 6”, “evaluation. A typical evaluation of the product is as follows.” for “evaluation.”

[4] = system: panelists; assay: Confirmation of umami and saltiness enhancement in edible salt and MSG solution; conditions: 10 ppb added to aqueous 0.3 mass % edible salt and 0.03 mass % sodium glutamate (MSG); 5 panelists
Text: Well-trained 5 panelists tasted an aqueous solution of 0.3 mass % edible salt and 0.03 mass % sodium glutamate (MSG), and aqueous solutions prepared by adding to the aqueous solution, 10 ppb of any of the invention products 1 to 6, for organoleptic evaluation in point of umami and saltiness enhancement.
(§3) Well-trained 5 panelists tasted an aqueous solution of 0.3 mass % edible salt and 0.03 mass % sodium glutamate (MSG), and an aqueous solution prepared by adding to the aqueous solution, 10 ppb of 2-(3-benzyloxypropyl)pyridine (invention product 101), for organoleptic evaluation in point of umami and saltiness enhancement.
as §3, with “ppb, as 2-(3-benzyloxypropyl)pyridine therein,” for “ppb”, “the invention” for “2-(3-benzyloxypropyl)pyridine (invention”, “201 or the reference product 202,” for “101),”

[5] = system: panelists; assay: Confirmation of umami in water (organoleptic evaluation of taste and flavor in words); conditions: for Organoleptic Evaluation Taste / Organoleptic Evaluation Flavor: average of 5 panelists
Description: A solution was prepared by dissolving 2-(3-benzyloxypropyl)pyridine (invention product 101) in water to have a concentration shown in Table 15. As a comparative product, a solution was prepared by dissolving 2-(2-benzyloxyethyl)pyridine (comparative product 1 prepared in Comparative Example 1) to have the same concentration. Well-trained 5 panelists tasted the solutions and non-added water for organoleptic evaluation of taste and flavor.
The invention product 101 and the comparative product 1 were individually diluted with ethanol to have a proper concentration, and then further diluted with water to prepare an aqueous solution of 2-(3-benzyloxypropyl)pyridine (invention product 101 produced in Example 101) and that of 2-(2-benzyloxyethyl)pyridine (comparative product synthesized in Comparative Example 1) each having a concentration shown in the following Table 21. Well-trained panelists tasted the solution having a different concentration and non-added water for organoleptic evaluation in point of taste and flavor. […]

[6] = system: panelists; assay: Confirmation of umami enhancing effect: comparison with edible salt and 0.05 mass % MSG solution; conditions: 10 ppb with 0.3 mass % edible salt in water; 5 panelists; Example 110
Text: Well-trained 5 panelists tasted an aqueous solution of 0.3 mass % edible salt and 0.05 mass % sodium glutamate (MSG), and an aqueous solution of 0.3 mass edible salt and 10 ppb of 2-(3-benzyloxypropyl)pyridine (invention product 101), for organoleptic evaluation of umami.
Well-trained 5 panelists tasted (1) an aqueous solution of 0.3 mass % edible salt and 0.05 mass % sodium glutamate (MSG), and (2) and an aqueous solution of 0.3 mass % edible salt and […], as 2-(3-benzyloxypropyl)pyridine therein, of the invention product 201, for organoleptic evaluation in point of umami.

[7] = system: panelists; assay: Confirmation of umami enhancing effect in sodium inosinate solution; conditions: 10 ppb added to aqueous 0.1 mass % sodium inosinate solution; 5 panelists
Text: Well-trained 5 panelists tasted an aqueous solution of 0.1 mass % sodium inosinate (5′-IMP⋅2Na), and aqueous solutions prepared by adding to the aqueous 0.1 mass % sodium inosinate solution, 10 ppb of any of the invention products 1 to 6, for organoleptic evaluation in point of umami.
Well-trained 5 panelists tasted an aqueous solution of 0.1 mass % sodium inosinate (5′-IMP⋅2Na), and an aqueous solution prepared by adding thereto 10 ppb of 2-(3-benzyloxypropyl)pyridine (invention product 101), for organoleptic evaluation in point of umami.
Well-trained 5 panelists tasted (1) 0.1 mass % sodium inosinate (5′-IMP⋅2Na) and (2) an aqueous solution of 0.1 mass % sodium inosinate and 5 ppb, as 2-(3-benzyloxypropyl)pyridine therein, of the invention product 201, for organoleptic evaluation in point of umami.

[8] = system: panelists; assay: Confirmation of sweetness enhancing effect in sucrose solution; conditions: 5 ppb added to aqueous 3 mass % sucrose solution; 5 panelists
Text: Well-trained 5 panelists tasted an aqueous 3 mass % sucrose solution, and aqueous solutions prepared by adding to the aqueous 3 mass % sucrose solution, 5 ppb of any of the invention products 1 to 6, for organoleptic evaluation in point of sweetness.
Well-trained 5 panelists tasted an aqueous 3 mass % sucrose solution, and an aqueous solution prepared by adding thereto 5 ppb of 2-(3-benzyloxypropyl)pyridine (invention product 101), for organoleptic evaluation in point of sweetness.
Well-trained 5 panelists tasted (1) an aqueous 3 mass % sucrose solution and (2) an aqueous solution prepared by adding […], as 2-(3-benzyloxypropyl)pyridine therein, of the invention product 201 to the aqueous 3 mass % sucrose solution, for organoleptic evaluation in point of sweetness.

[9] = in 0.3 mass % sodium chloride solution, Example 108
[10] = aqueous solution, Reference Example 201

c1ccc(COCCCc2ccccn2)cc1 [invention product 101, 2-(3-benzyloxypropyl)pyridine]
Organoleptic Evaluation (umami impartment and saltiness enhancement) ([1]; 1 ppb in 0.3 mass % sodium chloride solution, average of 5 panelists, Example 108): Slightly umami as compared with control.
concentration providing umami in 0.3 mass % sodium chloride solution relative to that of the solution in water ([1]; Example 108): about 1/10
concentration providing umami in 0.3 mass % sodium chloride solution relative to that of the solution in water ([1]; Example 203): about 1/10
concentration to realize the same degree of umami intensity relative to that of 2-(2-benzyloxyethyl)pyridine [1, 9]: about 1/10
umami imparting effect relative to 2-(2-benzyloxyethyl)pyridine (comparative product 1) [1, 9]: about 10 times
umami, saltiness and sweetness compared with non-added soup broth [2]: stronger umami, saltiness and sweetness
Flavor Evaluation [3]: somewhat herbal, green and nutty flavor of natural impression
umami and saltiness compared with the non-added solution [4]: stronger umami and saltiness
Organoleptic Evaluation Taste ([5]; 0.1 ppm dissolved in water, Example 107): Weakly umami.
Organoleptic Evaluation Taste ([5]; 0.1 ppm, diluted with ethanol, then with water, Reference Example 201): Weakly umami.
Organoleptic Evaluation Flavor ([5]; 2 ppb dissolved in water, Example 107): Nothing at all.
Organoleptic Evaluation Flavor ([5]; 2 ppb, diluted with ethanol, then with water, Reference Example 201): Nothing at all.
Organoleptic Evaluation Taste ([5]; 10 ppb dissolved in water, Example 107): Slightly umami
Organoleptic Evaluation Taste ([5]; 10 ppb, diluted with ethanol, then with water, Reference Example 201): Slightly umami.
Organoleptic Evaluation Taste ([5]; 20 ppm dissolved in water, Example 107): Strongly umami.
Organoleptic Evaluation Taste ([5]; 20 ppm, diluted with ethanol, then with water, Reference Example 201): Strongly umami.
concentration to provide the same umami intensity relative to that of 2-(2-benzyloxyethyl)pyridine [5, 10]: about 1/10
umami imparting effect relative to 2-(2-benzyloxyethyl)pyridine [5, 10]: ~10 times
concentration to provide the same umami intensity relative to that of 2-(2-benzyloxyethyl)pyridine ([5]; in water, Example 107): about 1/10
umami compared with aqueous 0.3 mass % edible salt and 0.05 mass % sodium glutamate (MSG) [6]: umami of almost the same level
umami compared with the non-added solution [7]: stronger umami
sweetness compared with the non-added solution [8]: stronger sweetness
